This test in a line: Replicon Assay (luciferase, ET cell line). The test is classed as cell-based, HCV. The conditions noted are these: Hepatitis C virus; % inhibition of replication relative to no compound control, test concentration of 10 μM; ET cells, luciferase read 48-72 hours; read-out: % inhib at 10 uM. As to the method:
A cell line, ET (Huh-lucubineo-ET) was used for screening of compounds of the present invention for HCV RNA dependent RNA polymerase. The ET cell line was stably transfected with RNA transcripts harboring a I389luc-ubi-neo/NS3-3′/ET; replicon with firefly luciferase-ubiquitin-neomycin phosphotransferase fusion protein and EMCV-IRES driven NS3-5B polyprotein containing the cell culture adaptive mutations (E1202G; T1280I; K1846T) (Krieger at al, 2001 and unpublished). The ET cells were grown in DMEM, supplemented with 10% fetal calf serum, 2 mM Glutamine, Penicillin (100 IU/mL)/Stretomycin (100 μg/mL), 1× nonessential amino acids, and 250 μg/mL G418 (“Geneticin”). They were all available through Life Technologies (Bethesda, Md.). The cells were plated at 0.5−1.0×10^4 cells/well in the 96 well plates and incubated for 24 hrs before adding nucleoside analogs. […] Luciferase activity were measured 48-72 hours later by adding a lysis buffer and the substrate (Catalog number Glo-lysis buffer E2661 and Bright-Glo luciferase system E2620 Promega, Madison, Wis.). Cells should not be too confluent during the assay. Percent inhibition of replication was plotted relative to no compound control. Under the same condition, cytotoxicity of the compounds was determined using cell proliferation reagent, WST-1 (Roche, Germany). The compounds showing antiviral activities, but no significant cytotoxicities were chosen to determine IC50 and TC50. For these determinations, 10 concentration of each compound were used. Concentrations for test compounds typically span a range of 500 fold. IC50 and TC50 values were calculated by fitting % inhibition at each concentration (I) to the following equation: % inhibition=100%/[1+10^(log IC50−log(I))*b] where b is Hill's coefficient.

As for `COc1ccccc1-c1cccc(NC(=O)[C@@H]2CCCN2C(=O)OCc2ccccc2)c1` [Compound 6031, 2-(2′-Methoxybiphenyl-3-yl-carbamoyl)-pyrrolidine-1-carboxylic acid benzyl ester], the inhibition at 10 µM was determined as 28.6%. With `O=C(Nc1cc(Oc2ccc3oc4c(c3c2)CCCC4)cc([N+](=O)[O-])c1)[C@@H]1CCCN1C(=O)OCc1ccccc1` [Compound 6032, 2-[3-Nitro-5-(6,7,8,9-tetrahydro-dibenzofuran-2-yloxy)-phenylcarbamoyl]-pyrrolidine-1-carboxylic acid benzyl ester], the inhibition at 10 µM was determined as 44.5%. With `O=C(Nc1cccc(Oc2ccccc2)c1)[C@@H]1CCCN1C(=O)OCc1ccccc1` [Compound 6034, 2-(3-Phenoxy-phenylcarbamoyl)-pyrrolidine-1-carboxylic acid benzyl ester], the inhibition at 10 µM stood at 26.7%.

Consider `O=C(Nc1ccc(-c2ccccc2)cc1)[C@@H]1CCCN1C(=O)OCc1ccccc1` [Compound 6035, 2-(Biphenyl-4-ylcarbamoyl)-pyrrolidine-1-carboxylic acid benzyl ester], for which the inhibition at 10 µM stood at 42.5%. `COc1cccc(OC)c1-c1ccc(NC(=O)[C@@H]2CCCN2C(=O)OCc2ccccc2)cc1` [Compound 6036, 2-(2′,6′-Dimethoxy-biphenyl-4-ylcarbamoyl)-pyrrolidine-1-carboxylic acid benzyl ester]: the inhibition at 10 µM amounted to 22.9%. On to `COc1ccc(-c2cccc(NC(=O)[C@@H]3CCCN3C(=O)OCc3ccccc3)c2)cc1` [Compound 6037, 2-(4′-Methoxybiphenyl-3-yl-carbamoyl)-pyrrolidine-1-carboxylic acid benzyl ester], for which the inhibition at 10 µM came to 8.6%. `O=C(Nc1cccc(-c2ccc3c(c2)OCO3)c1)[C@@H]1CCCN1C(=O)OCc1ccccc1` [Compound 6043, 2-(3-Benzo[1,3]dioxol-5-yl-phenylcarbamoyl)-pyrrolidine-1-carboxylic acid benzyl ester]: the inhibition at 10 µM was 93.9%. In the case of `O=C(Nc1cccc(-c2ccc3ccccc3c2)c1)[C@@H]1CCCN1C(=O)OCc1ccccc1` [Compound 6044, 2-(3-Naphthalen-2-yl-phenylcarbamoyl)-pyrrolidine-1-carboxylic acid benzyl ester], the inhibition at 10 µM is 73.2%. Turning to `CN(C)c1ccc(-c2cccc(NC(=O)[C@@H]3CCCN3C(=O)OCc3ccccc3)c2)cc1` [Compound 6045, 2-(4′-Dimethylamino-biphenyl-3-ylcarbamoyl)-pyrrolidine-1-carboxylic acid benzyl ester], the inhibition at 10 µM amounted to 15.7%.

As to `O=C(Nc1cccc(Br)c1)[C@@H]1CCCN1C(=O)OCc1ccccc1` [Compound 6047, 2-(3-Bromo-phenylcarbamoyl)-pyrrolidine-1-carboxylic acid benzyl ester], the inhibition at 10 µM came out at 1.38%. Turning to `CC(=O)c1ccc(-c2cccc(NC(=O)[C@@H]3CCCN3C(=O)OCc3ccccc3)c2)s1` [Compound 6048, 2-[3-(5-Acetyl-thiophen-2-yl)-phenylcarbamoyl]-pyrrolidine-1-carboxylic acid benzyl ester], the inhibition at 10 µM was 36.9%.

For the compound `Cn1ccc2cc(-c3cccc(NC(=O)[C@@H]4CCCN4C(=O)OCc4ccccc4)c3)ccc21` [Compound 6051, 2-[3-(1-Methyl-1H-indol-5-yl)-phenylcarbamoyl]-pyrrolidine-1-carboxylic acid benzyl ester], the inhibition at 10 µM is 68.8%.

With `CC(=O)c1ccc(-c2cccc(NC(=O)[C@@H]3CCCN3C(=O)OCc3ccccc3)c2)cc1` [Compound 6052, 2-(4′-Acetyl-biphenyl-3-ylcarbamoyl)-pyrrolidine-1-carboxylic acid benzyl ester], the inhibition at 10 µM was 48.3%.

As for `O=C(Nc1cccc(-c2ccc([N+](=O)[O-])cc2)c1)[C@@H]1CCCN1C(=O)OCc1ccccc1` [Compound 6053, 2-(4′-Nitro-biphenyl-3-ylcarbamoyl)-pyrrolidine-1-carboxylic acid benzyl ester], the inhibition at 10 µM amounted to 93.3%. In the case of `Nc1cccc(-c2cccc(NC(=O)[C@@H]3CCCN3C(=O)OCc3ccccc3)c2)c1` [Compound 6054, 2-(3′-Amino-biphenyl-3-ylcarbamoyl)-pyrrolidine-1-carboxylic acid benzyl ester] it was 97.7%; in that of `O=C(O)/C=C/c1ccc(-c2cccc(NC(=O)[C@@H]3CCCN3C(=O)OCc3ccccc3)c2)cc1` [Compound 6055, 2-[4′-(2-Carboxy-vinyl)-biphenyl-3-ylcarbamoyl]-pyrrolidine-1-carboxylic acid benzyl ester], 40.9%; in that of `CC(=O)Nc1ccc(-c2cccc(NC(=O)[C@@H]3CCCN3C(=O)OCc3ccccc3)c2)cc1` [Compound 6056, 2-(4′-Acetylamino-biphenyl-3-ylcarbamoyl)-pyrrolidine-1-carboxylic acid benzyl ester], 80.8%. For the compound `CC(=O)Nc1cccc(-c2cccc(NC(=O)[C@@H]3CCCN3C(=O)OCc3ccccc3)c2)c1` [Compound 6057, 2-(3′-Acetylamino-biphenyl-3-ylcarbamoyl)-pyrrolidine-1-carboxylic acid benzyl ester], the inhibition at 10 µM came out at 61.7%. In the case of `O=C(Nc1cccc(-c2cccc3[nH]ccc23)c1)[C@@H]1CCCN1C(=O)OCc1ccccc1` [Compound 6082, 2-[3-(1H-Indol-4-yl)-phenylcarbamoyl]-pyrrolidine-1-carboxylic acid benzyl ester] it was 97.4%. Consider `O=C1Cc2cc(-c3cccc(NC(=O)[C@@H]4CCCN4C(=O)OCc4ccccc4)c3)ccc2N1` [Compound 6083, 2-[3-(2-Oxo-2,3-dihydro-1H-indol-5-yl)-phenylcarbamoyl]-pyrrolidine-1-carboxylic acid benzyl ester], for which the inhibition at 10 µM turned out to be 93.8%. As to `O=C1Nc2ccc(-c3cccc(NC(=O)[C@@H]4CCCN4C(=O)OCc4ccccc4)c3)cc2C1=O` [Compound 6084, 2-[3-(2,3-Dioxo-2,3-dihydro-1H-indol-5-yl)-phenylcarbamoyl]-pyrrolidine-1-carboxylic acid benzyl ester], the inhibition at 10 µM came to 3.35%. Turning to `Cc1ccc2cc(-c3cccc(NC(=O)[C@@H]4CCCN4C(=O)OCc4ccccc4)c3)ccc2n1` [Compound 6085, 2-[3-(2-Methyl-quinolin-6-yl)-phenylcarbamoyl]-pyrrolidine-1-carboxylic acid benzyl ester], the inhibition at 10 µM was determined as 39.7%. Consider `Nc1ccc(-c2cccc(NC(=O)[C@@H]3CCCN3C(=O)OCc3ccccc3)c2)cc1` [Compound 6086, 2-(4′-Amino-biphenyl-3-ylcarbamoyl)-pyrrolidine-1-carboxylic acid benzyl ester], for which the inhibition at 10 µM was determined as 89.9%. Consider `CC(=O)c1cccc(-c2cccc(NC(=O)[C@@H]3CCCN3C(=O)OCc3ccccc3)c2)c1` [Compound 6087, 2-(3′-Acetyl-biphenyl-3-ylcarbamoyl)-pyrrolidine-1-carboxylic acid benzyl ester], for which the inhibition at 10 µM was 78.9%. In the case of `O=C(Nc1cccc(-c2ccc3cc(O)ccc3c2)c1)[C@@H]1CCCN1C(=O)OCc1ccccc1` [Compound 6088, 2-[3-(6-Hydroxy-naphthalen-2-yl)-phenylcarbamoyl]-pyrrolidine-1-carboxylic acid benzyl ester], the inhibition at 10 µM was 99.9%.

The values are drawn from US7629340B2, “N-(6-membered aromatic ring)-amido anti-viral compounds” (SmithKline Beecham Corporation, priority 2005, dated 2009).
